The record followed here is PMC6510822, “Identification of anticancer OATP2B1 substrates by an in vitro triple-fluorescence-based cytotoxicity screen” (Archives of Toxicology, 2019).

Marks after values point to notes of the source that are not given here.

For data set [1], the system named is OATP2B1. Kind of data set: in vitro. As to conditions: human.
Experimental: (§1) After the transduction, cell lines were tested by flow cytometry and were sorted based on transporter expression/function, and in the case of the OATP2B1-expressing cell line, on CD4 protein expression. Parental, SLCO2B1, ABCG2 and ABCB1 overexpressing cell lines were transduced with the fluorescent protein expressing lentiviral supernatants produced with pRRL-EF1-mCherry, -mOrange or -eGFP expression plasmid in a second round of transduction. Mes-Sa/Dx5-eGFP cells were repeatedly cultured in 500 nM doxorubicin to ensure homogenous expression of Pgp. […] Functional expression of ABCB1 and ABCG2 was regularly checked with cytotoxicity assays using mitoxantrone in the absence or presence of tariquidar.
(§2) All experiments were performed using a robotic pipetting workstation (Hamilton Robotics STAR Let). Cells were seeded at a final cell density of 1875 cells per well in 384-well plates in the triple co-culture (625 cells from each lines) and at 2500 cells per well in the A431 control and A431-2B1 co-culture (1250 cells from both) systems. Co-cultured cells were incubated for 24 h at 37 °C and 5% CO2 under humidified atmosphere prior to the addition of drugs. […] Data were exported to a custom-made program for determining growth inhibition curves for each cell line.
(§3) In the primary screening, IC50 was estimated by the intercept of the linear regression fitted on nearest values. In the confirmatory screening, IC50 values were obtained by sigmoidal curve fitting using the GraphPad Prism software. […] The Resistance Ratio (RR) was calculated by dividing the IC50 values measured against the multidrug resistant, transporter-expressing derivative by the cytotoxicity measured in the parental cell line; the Selectivity Ratio (SR) is the inverse of RR.
Data set [2] relates to A431-2B1 cells (OATP2B1 expressing). Kind of data set: Fluorescence-based cytotoxicity assay, OATP2B1-expressing A431-2B1 mCh.
Experimental: as §1, §2, §3
Another data set relates to A431 cells. Kind of data set: Fluorescence-based cytotoxicity assay, parental A431 eGFP. As to conditions: Homo sapiens, A-431, read-out: IC50 (µM) A431 eGFP, co-culture.
Data set [3] concerns the target T1, OATP2B1 (Homo sapiens, UniProt O94956).
T1 sequence (O94956 1-709): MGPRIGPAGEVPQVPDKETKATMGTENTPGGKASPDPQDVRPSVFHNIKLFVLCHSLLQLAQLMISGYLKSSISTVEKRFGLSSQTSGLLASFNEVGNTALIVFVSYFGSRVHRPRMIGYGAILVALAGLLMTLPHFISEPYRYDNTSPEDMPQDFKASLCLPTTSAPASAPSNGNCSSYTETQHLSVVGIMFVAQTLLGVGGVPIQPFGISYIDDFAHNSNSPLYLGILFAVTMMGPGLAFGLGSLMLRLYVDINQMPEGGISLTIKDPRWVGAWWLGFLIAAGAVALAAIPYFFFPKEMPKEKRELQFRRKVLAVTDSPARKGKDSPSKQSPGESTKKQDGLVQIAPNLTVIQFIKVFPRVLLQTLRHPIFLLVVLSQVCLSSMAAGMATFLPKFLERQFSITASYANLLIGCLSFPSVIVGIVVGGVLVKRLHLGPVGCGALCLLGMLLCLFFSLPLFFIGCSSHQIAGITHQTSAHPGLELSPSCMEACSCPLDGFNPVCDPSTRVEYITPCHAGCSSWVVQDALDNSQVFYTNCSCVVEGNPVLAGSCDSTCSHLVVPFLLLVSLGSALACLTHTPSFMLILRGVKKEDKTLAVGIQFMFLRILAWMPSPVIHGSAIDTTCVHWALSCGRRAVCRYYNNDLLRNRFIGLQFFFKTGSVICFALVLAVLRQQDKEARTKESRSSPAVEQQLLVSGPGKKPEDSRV
Kind of data set: Inhibition of OATP2B1-mediated Cascade Blue uptake (microplate-based uptake assay, A431-2B1 cells).
Experimental: OATP-expressing A431 cells were seeded (7 × 10^4 cells in 200 µl final volume/well) onto 96-well plates and cultured for 16–24 h at 37 °C, 5% CO2. After reaching confluence, the supernatant was removed and the cells were washed three-times with 200 µl of phosphate-buffered saline (PBS). The cells were preincubated in the presence of the compounds for 5 min at 37 °C. The amount of solvent was kept below 0.5% throughout the study to avoid interference with the fluorescence of the dyes. The reaction was started with the addition of 50 µl Cascade Blue fluorescent dye (10 µM final concentration in a final volume of 100 µl) and the plate was incubated at 37 °C for 30 min (Patik et al. [2018]). The reaction was stopped by the addition of 200 µl ice-cold PBS. The supernatant was rapidly removed, and the cells were washed three-times with 200 µl ice-cold PBS. Finally, 200 µl PBS was added to the cells and fluorescence was measured at room temperature using an EnSpire fluorescent plate reader (Perkin Elmer) at wavelengths 401ex/419em nm.

The test system of a further data set is Mes-Sa/Dx5 cells. Description: Fluorescence-based cytotoxicity assay, Mes-Sa/Dx5 eGFP.

Experimental for A431 cells: as §1, §2, §3
Experimental for Mes-Sa/Dx5 cells: as §1, §2, §3

One may read the IC50 as the midpoint of a concentration-inhibition curve. As to `S=P(N1CC1)(N1CC1)N1CC1` [NSC-6396, Thioplex], the IC50 in the data set on OATP2B1 [1] was 18.7 µM; in the data set with A431 cells, 57.6 µM; against OATP2B1 [3], 574 ± 283 µM. Besides, the “SR (A431-2B1 vs parental A431), screening of DTP Oncology Set IV” value in data set [2] is reported as 3.48. Also, in data set [2], the “SR, co-culture” value is 3.08^*. Further, the “SR (Mes-Sa/DX5)” value in the data set with Mes-Sa/Dx5 cells came out at 12.56.
